The source of these data is paper PMC5768801, “The PII signaling protein from red algae represents an evolutionary link between cyanobacterial and Chloroplastida PII proteins” (Scientific Reports, 2018).

Several values for one entry are separate records, joined by “and”; a condition that tells them apart may be missing. Equal entries are not always repeated. Where two headings read alike, the source gives them in different places.

The target in one experiment is T1, ScNAGK (Synechocystis sp., UniProt P73326).
T1 sequence (P73326 1-297): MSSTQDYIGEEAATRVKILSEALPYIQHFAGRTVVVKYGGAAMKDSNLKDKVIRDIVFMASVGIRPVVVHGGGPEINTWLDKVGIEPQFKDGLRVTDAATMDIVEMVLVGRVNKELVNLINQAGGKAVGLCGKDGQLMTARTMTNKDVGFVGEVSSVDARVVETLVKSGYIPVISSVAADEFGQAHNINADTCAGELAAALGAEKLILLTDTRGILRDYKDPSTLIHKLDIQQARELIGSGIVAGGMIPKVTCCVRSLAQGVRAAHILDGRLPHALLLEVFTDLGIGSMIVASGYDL
In words: AGPR-coupled NAGK activity assay without PpPII. In kind it is biochemical, Synechocystis sp. PCC 6803. The following applies: absence of PpPII, comparing 0 and 4 mM ADP, at 1 mM or 2 mM ATP. The text has this: All available structural information of PII proteins revelas that ATP and ADP bind to the same binding sites[2],[7]. When ATP and ADP are simultaneously present, they will compete for binding to the PII trimer. Since, the ATP/ADP binding site of the red algal PpPII protein is highly conserved (Fig. 1), competition between the nucleotides will occur. Since the activation of NAGK by PII is dependent on the ATP-ligated state of PII[9] and ADP inhibits PII-NAGK complex formation[9],[31], competition between ATP/ADP for PII binding can be monitored by measuring NAGK activity[31] under different ATP/ADP ratios. For this assay, we used an AGPR-coupled activity assay for NAGK[33], which allows measurement of NAGK activity in presence of ADP. Different concentrations of ADP were added to reaction mixtures containing either 1 mM or 2 mM ATP, in the absence or presence of PpPII (Fig. 8). Addition of ADP led to a monotonical and shallow decrease in the activity of ScNAGK at both fixed ATP concentration. […]
The change in NADPH absorbance was recorded at 340 nm as described previously[31],[33], in a reaction buffer composed of 50 mM potassium phosphate (pH 7.0), 50 mM KCl, 20 mM MgCl2, 0.2 mM NADPH and 0.5 mM DTT. […] The reaction was started by the addition of ScNAGK and was recorded for 10 min with a spectrophotometer (SPECORD 210 PLUS, Analytik Jena). Kinetic constants were calculated as descried above.

The target of the next experiment is PpPII (Porphyra purpurea, UniProt P51254). In words: ITC binding of small effector molecules to red algal PpPII. The method, then: To gain additional insights into the ligand binding properties of PpPII in comparison to cyanobacterial and chloroplastid PII proteins, isothermal titration calorimetry (ITC) experiments were performed using highly purified Strep-tagged or His-tagged recombinant PpPII, SyPII, CrPII, and PhyscoPII proteins (Supplementary Fig. S1) with different protein/ligand/ concentrations to determine the best fitting conditions of the binding model. The titration experiments were repeated with different protein preparations to confirm the reproducibility of the results. The raw isothermal data were fitted into one-binding site as well as three-sequential binding sites to define the best fitting model. Fitting using a one binding site model states an average Kd value for all available binding sites and the mean of the stoichiometry of bound ligands.
The ITC experiments were done using a VP-ITC microcalorimeter (MicroCal, LCC). All details for determination of binding constants for small effector molecules using ITC are fully described in the supplementary information. Heat isotherms of the dilution of the ligand in the cell buffer were collected in a blank run for each experiment in the absence of protein. The binding isotherms were calculated from received data and fitted to one-site and three-sequential binding sites models using the MicroCal ORIGIN software (Northampton) as described. All titrations were performed in duplicates with different purification batches of recombinant PII proteins. The association binding constant (Ka) was generated from the software by de-convolution and curve fitting. For calculation of dissociation constant (Kd), the Ka value was inversed.
Supplementary Information […]
Determination of Binding Constants for Small Effector Molecules using Isothermal […]
The binding of the small effector molecules to the recombinant PII proteins was tested using isothermal titration calarmity (ITC); VP-ITC microcalorimeter (MicroCal). All titrations were performed on 20°C using […] injection syringe with injection 6 µl or 10 µl of the tested ligands for 45 or 29 times, respectively into the cell (1.4 ml) with continuous stirring at 155 rpm. All tested ligands were high grade, prepared freshly in the same buffer of the protein and purchased from Sigma-Aldrich. Heat isotherms for the dilution of the ligand in the cell buffer were collected in a blank run in the absence of protein. The received calorimetric data were analyzed using MicroCal Origin software and fitted into one-site and three-sequential binding sites models, as indicated by the manufacture for calculation of binding isotherms9. For data reproducibility, the titrations were performed in duplicates with different purification batches of recombinant PII proteins. The association binding constant (Ka) was generated from the software by de-convolution and curve fitting. For calculation of dissociation constant (Kd), the Ka value was inversed.
For determination the binding isotherms of red algal PpPII protein, a buffer system composed of […]
used. For determination ATP and ADP binding isotherms upon the binding to PpPII protein, His- […]
against 2 mM ATP or 2 mM ADP. For determination of ATP and ADP binding isotherms in […]
concentration) was titrated against 0.5 mM of ATP or 1 mM ADP, respectively. However, for […]
of 1 mM of ATP or 1 mM ADP. […]

The target in a further experiment is T2, SyPII (Synechococcus elongatus, UniProt P0A3F4).
T2 construct: Strep-tag; made in house
The settings on record: cited from earlier work.

T2 sequence (P0A3F4 whole entry): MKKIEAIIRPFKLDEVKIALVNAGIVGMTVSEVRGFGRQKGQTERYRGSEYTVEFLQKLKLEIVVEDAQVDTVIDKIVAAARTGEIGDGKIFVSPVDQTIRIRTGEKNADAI
Sequence of PpPII (P51254 whole entry): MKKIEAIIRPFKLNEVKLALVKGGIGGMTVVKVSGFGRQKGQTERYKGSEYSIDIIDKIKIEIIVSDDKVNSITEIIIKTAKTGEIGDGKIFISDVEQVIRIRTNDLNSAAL

As for `Nc1ncnc2c1ncn2[C@@H]1O[C@H](COP(=O)(O)OP(=O)(O)O)[C@@H](O)[C@H]1O` [ADP], the “reduction of ScNAGK activity” value at ScNAGK was “about 1.8 fold”. In addition, the “N, number of calculated binding sites (one-site binding model)” value at PpPII (in presence 2-OG (1 mM)) is recorded as 2.7; at PpPII (titrant alone, per PII trimer), 2.7. Also, the Kd on PpPII (in presence 2-OG (1 mM), read-out: Average Kd (one-site binding model)) was 10.8 ± 2.8 µM; on PpPII (in presence 2-OG (1 mM), read-out: Kd1 (three-sites binding model)), 10.3 ± 10 µM; on PpPII (in presence 2-OG (1 mM), read-out: Kd2 (three-sites binding model)), 43.6 ± 4.7 µM; on PpPII (in presence 2-OG (1 mM), read-out: Kd3 (three-sites binding model)), 125.9 ± 0.9 µM; on PpPII (titrant alone, read-out: Average Kd (one-site binding model)) it was ~7.2 µM and 7.2 µM; on PpPII (titrant alone, read-out: Kd1 (three-sites binding model)), 3.4 ± 0.5 µM. Also, the Kd at PpPII (titrant alone, read-out: Kd2 (three-sites binding model)) was 15.2 ± 0.7 µM; at PpPII (titrant alone, read-out: Kd3 (three-sites binding model)), 132 ± 2.7 µM; on SyPII (read-out: Kd1 (three-sites binding model), titrant alone, given in parentheses for comparison) it was 10.6 µM; on SyPII (read-out: Kd2 (three-sites binding model), titrant alone, given in parentheses for comparison) it was 19.3 µM; on SyPII (read-out: Kd3 (three-sites binding model), titrant alone, given in parentheses for comparison), 133 µM.
